Source: PubChem BioAssay (NCI)
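In this assay, cells in 96-well plates receive the compound at five concentrations for 48 hours. Endpoints are linearly interpolated between the surrounding concentrations. At the GI50, growth is halved. Definition used: TGI = concentration required for complete inhibition of growth.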

Assays:
Test in all cases: inhibition of tumour cell growth, NCI panel, 48 h
HOP-62 NSCLC = tested on: HOP-62 NSCLC
NCI/ADR-RES ovarian = tested on: NCI/ADR-RES ovarian
SN12C renal = tested on: SN12C renal
NCI-H522 lung = tested on: NCI-H522 lung
IGROV1 ovarian = tested on: IGROV1 ovarian
HOP-92 NSCLC = tested on: HOP-92 NSCLC
DU-145 prostate = tested on: DU-145 prostate
MALME-3M melanoma = tested on: MALME-3M melanoma

SMILES | GI50 (HOP-62 NSCLC) | TGI (HOP-62 NSCLC) | GI50 (NCI/ADR-RES ovarian) | TGI (NCI/ADR-RES ovarian) | GI50 (SN12C renal) | TGI (SN12C renal) | GI50 (NCI-H522 lung) | TGI (NCI-H522 lung) | GI50 (IGROV1 ovarian) | TGI (IGROV1 ovarian) | GI50 (HOP-92 NSCLC) | TGI (HOP-92 NSCLC) | GI50 (DU-145 prostate) | TGI (DU-145 prostate) | GI50 (MALME-3M melanoma) | TGI (MALME-3M melanoma)
O=C(OCc1ccc2c(Br)cc(Br)c(O)c2n1)c1cc2ccccc2[nH]1 | 1.34 µM | 3.47 µM | 1.63 µM | 7.59 µM | 0.839 µM | 2.18 µM | 0.552 µM | 2.19 µM | 0.66 µM | 1.91 µM | 0.548 µM | 2.15 µM | 0.91 µM | 2.18 µM | 1.38 µM | 2.77 µM
FC(F)(F)Oc1cccc(-c2cc(NCCCCCCNc3cc(-c4cccc(OC(F)(F)F)c4)nc4ccc(N5CCCC5)cc34)c3cc(N4CCCC4)ccc3n2)c1 | 2.04 µM | 4.44 µM | 2.07 µM | 4.5 µM | 1.64 µM | 3.06 µM | 2.05 µM | 4.76 µM | 1.52 µM | 3.12 µM | 1.54 µM | 3.18 µM | 2.46 µM | 5.76 µM | 1.68 µM | 3.1 µM
CCN=c1sc2c(n1NC(=O)c1cc3ccc1CCc1ccc(cc1)CC3)C(=O)c1ccccc1C2=O | 1.02 µM | 2.76 µM | 0.814 µM | 2.39 µM | 0.52 µM | 1.06 µM | 0.54 µM | 1.31 µM | 0.449 µM | 1.31 µM | 0.772 µM | 2.83 µM | 0.632 µM | 1.16 µM | 0.524 µM | 0.978 µM
CCCCCCCCCCCC[N+]1(CCCCCCCCCCCC)CCCC(C)C1 (stereo not drawn) | – | – | 4.41 µM | > 100 µM | – | – | – | – | – | – | – | – | 0.57 µM | 1.87 µM | – | –
O=C1C=C[C@H](O)[C@@]2(CO)O[C@@H]12 | 23.7 µM | > 55.2 µM | 16.6 µM | 45.8 µM | 8.53 µM | 22.4 µM | 1.81 µM | 3.79 µM | 10.1 µM | 29.8 µM | 4.77 µM | 14.6 µM | 14.3 µM | 27.4 µM | 2.53 µM | 9.32 µM
Cn1nccc1Nc1nccc(-c2ccn([C@H](CO)c3ccc(Cl)c(F)c3)c(=O)c2)n1 | 37.8 µM | > 100 µM | > 100 µM | > 100 µM | 10 µM | > 100 µM | 13.1 µM | > 51.9 µM | 22.9 µM | > 100 µM | 1.36 µM | 40 µM | 27.7 µM | > 100 µM | 0.0289 µM | 0.307 µM
CN(C)CCCC1(c2ccc(F)cc2)OCc2cc(-c3cccc4[nH]ccc34)ccc21 (stereo not drawn) | 1.5 µM | 2.89 µM | 1.72 µM | 3.38 µM | 1.55 µM | 2.96 µM | 1.59 µM | 3.22 µM | 1.33 µM | 2.73 µM | 1.25 µM | 2.81 µM | 1.77 µM | 3.23 µM | 1.56 µM | 3.01 µM
COCC([C@@H](O)C(O)C(=O)NCC[C@@H](C)c1nc(/C=C/CC2OC3(C[C@H](O)C2C)OC(C(C[C@H](O)C(C)[C@H](O)C(C)/C=C(C)/C(C)=C/C=C/C(C)=C/C#N)OC)[C@@H](OP(=O)(O)O)C3(C)C)co1)N(C)C (stereo partly drawn) | – | – | – | 0.00258 µM | – | 0.00034 µM | – | 0.000308 µM | – | 0.000296 µM | – | 0.000316 µM | – | 0.000322 µM | – | 0.000316 µM
CCn1cc(C(=O)O)c(=O)c2cc(F)c(N3CCN(S(=O)(=O)c4cccc5ccccc45)CC3)cc21 | 4.6 µM | 39.2 µM | 3.2 µM | > 100 µM | 2.59 µM | > 100 µM | 2.78 µM | 8.04 µM | 2.47 µM | 7.49 µM | 1.25 µM | 5.43 µM | 3.97 µM | > 100 µM | 2.83 µM | 7.83 µM
CCN1C(=S)N(CC)C2C1NC(=S)N2/N=C/C=C/c1ccccc1OC (stereo not drawn) | 0.453 µM | > 100 µM | 0.237 µM | – | 0.67 µM | 24.8 µM | 0.137 µM | 1.19 µM | 0.506 µM | > 100 µM | 3.56 µM | > 76.7 µM | 0.354 µM | 25.3 µM | 0.736 µM | 63 µM
CCN(CC)CCCNc1ccc(C)c2sc3ccccc3c(=O)c12 | 1.14 µM | 2.55 µM | 1.4 µM | 4.48 µM | 1.09 µM | 7.51 µM | 3.08 µM | 15.9 µM | 1.22 µM | 2.92 µM | 1.96 µM | 16.2 µM | 1.04 µM | 2.44 µM | 0.193 µM | 0.402 µM
COc1cc2c(N3CCN(C(=O)Nc4ccc(OC(C)C)cc4)CC3)ncnc2cc1OCCCN1CCCCC1 | 14.4 µM | 34.2 µM | 53.1 µM | > 100 µM | 14.9 µM | 88 µM | 16.6 µM | 36.1 µM | 31.8 µM | 97.7 µM | 6.24 µM | 33.1 µM | 22 µM | > 85.3 µM | 14.3 µM | 29 µM
CNCc1cccc2c1OCCOCCOCCN(C)S(=O)(=O)c1ccc(cc1)-c1cnc(N)c(n1)C(=O)N2 | 1.77 µM | 4.04 µM | 14.3 µM | 32.6 µM | 1.48 µM | 3.41 µM | 1.76 µM | 4.94 µM | 0.58 µM | 12.8 µM | – | – | 1.27 µM | 15.2 µM | 1.53 µM | 3.72 µM
Cc1c(C(=N)C(C#N)C#N)c(=N)oc2c1ccc1ccccc12 | 21.7 µM | 77.6 µM | 25.2 µM | > 100 µM | 22 µM | > 100 µM | 8 µM | 25.7 µM | 7.76 µM | 53.4 µM | – | – | 25.3 µM | > 100 µM | 22.3 µM | 80.7 µM
CC(=O)O[C@H]1C(=O)[C@@]2(C)C([C@H](OC(=O)c3ccccc3)[C@]3(O)C[C@H](OC(=O)[C@H](O)[C@@H](NC(=O)c4ccccc4)c4ccccc4)C(C)=C1C3(C)C)[C@]1(OC(C)=O)CO[C@@H]1C[C@@H]2O (stereo partly drawn) | – | > 50 µM | 1.81 µM | 41.9 µM | 0.0142 µM | > 50 µM | – | 0.0146 µM | 0.41 µM | > 50 µM | 0.054 µM | > 50 µM | 0.00673 µM | 0.0272 µM | – | –
O=C1CC(c2ccccc2)Oc2ccccc21 (stereo not drawn) | – | > 100 µM | – | > 100 µM | – | – | – | – | – | > 100 µM | – | 62.8 µM | – | > 100 µM | – | –
COc1cc2c(cc1Nc1nc(N3CCc4ccccc43)c3cc[nH]c3n1)N(C(=O)CN(C)C)CC2 | 4.62 µM | 9.46 µM | 0.731 µM | 2.81 µM | 3.05 µM | 7.47 µM | 3.94 µM | 11.7 µM | 10.9 µM | 17.1 µM | – | – | 1.71 µM | 3.87 µM | 5.03 µM | 11 µM
O=C(Nc1cccc(-n2cc(-c3ccncc3)c(-c3cc(O)cc(Cl)c3)n2)c1)c1ccc(N2CCOCC2)c(C(F)(F)F)c1 | 3.59 µM | 58.2 µM | 4.59 µM | > 100 µM | 6.37 µM | > 100 µM | 0.934 µM | 12.1 µM | 5.12 µM | > 100 µM | – | – | 5.65 µM | > 100 µM | 1.38 µM | 5.19 µM
C[C@]12CC[C@H]3[C@@H](CCC4=CC(=O)CC[C@@]43C)[C@@H]1CC[C@@H]2c1csc(N)n1 | 6.56 µM | 23.7 µM | 2.54 µM | 22.4 µM | 3.57 µM | 24.5 µM | 7.18 µM | 24.9 µM | 4.98 µM | 20.6 µM | 11 µM | 28.5 µM | 6.72 µM | 24.5 µM | – | –
CCNc1nc(O)c(/C=C2\C=Nc3ncccc32)s1 | 2.27 µM | 7.27 µM | 10.5 µM | > 100 µM | 3.58 µM | 37.5 µM | 1.25 µM | 8.83 µM | 4.66 µM | > 100 µM | 1.08 µM | > 100 µM | 3.25 µM | 47.4 µM | – | –
Nc1ncnc2c1N=C(c1ccc3c(c1)OCO3)CC(c1ccc(Cl)cc1)N2 (stereo not drawn) | 16.6 µM | 42.6 µM | 5.35 µM | 41.2 µM | 80.4 µM | > 100 µM | 2.37 µM | > 100 µM | 0.351 µM | 3.76 µM | – | – | 16.8 µM | 33.3 µM | 89.1 µM | > 100 µM
CSC1=Nc2c(c(C)c(C)n2COC(CO)CO)C2=NC(=O)CN12 | > 100 µM | > 100 µM | > 100 µM | > 100 µM | > 100 µM | > 100 µM | > 100 µM | > 100 µM | – | – | > 100 µM | > 100 µM | > 100 µM | > 100 µM | > 100 µM | > 100 µM
CCN(CC)Cc1cc(Nc2nc(NC3CCC(N(C)C)CC3)c3ccccc3n2)ccc1OC (stereo not drawn) | 8.63 µM | 20.9 µM | – | – | 11.3 µM | 24.5 µM | 2.45 µM | 6.96 µM | 12.8 µM | 34.3 µM | 1.63 µM | 6.71 µM | 10.5 µM | 22.2 µM | 1.61 µM | 3.73 µM
O=[N+]([O-])c1ccc(Cl)c2c([N+](=O)[O-])cccc12 | – | > 10 µM | – | – | – | > 10 µM | – | – | – | > 10 µM | – | > 10 µM | – | – | – | > 10 µM
